This passage reports melting point and IC50 results from patent US7141586B2, “Nicotinamide derivatives useful as PDE4 inhibitors” (Pfizer Inc., priority 2003, dated 2006).

For data set [1], the system named is TNFα release from human peripheral blood mononuclear cells. The data set can be described thus: Inhibition of LPS-stimulated TNFα release from human peripheral blood mononuclear cells (TNFα screen). Format: cell-based. The conditions noted are these: human PBMC stimulated with lipopolysaccharide, 18 hours incubation, TNFα in supernatant by ELISA. The procedure:
Venous blood is collected from healthy volunteers and the mononuclear cells purified by centrifugation through Histopaque (Ficoll) cushions. TNFα production from these cells is stimulated by addition of lipopolysaccharide. After 18 hours incubation in the presence of LPS, the cell supernatant is removed and the concentration of TNFα in the supernatant determined by ELISA. Addition of PDE4 inhibitors reduces the amount of TNFα produced. An IC50 is determined which is equal to the concentration of compound that gives 50% inhibition of TNFα production as compared to the LPS stimulated control wells.

Compound `CSc1cccc(Oc2ncc(F)cc2C(=O)N[C@H]2CCCC[C@@H]2CO)c1` (relative stereo) [Example 56, 5-Fluoro-N-[trans-2-hydroxymethyl-cyclohexyl]-2-(3-methylsulfanyl-phenoxy)-nicotinamide] had a melting point of 128 to 129 °C.

In data set [1], “Syn-5-fluoro-N-{4-[(4-methyl-1H-imidazole-2-carbonyl)-amino]-cyclohexyl}-2-(3-methylsulfanyl-phenoxy)-nicotinamide [Example 4]” came in with a concentration for half-maximal inhibition (IC50) of 0.15 nM.

Take `CSc1cccc(Oc2ncc(F)cc2C(=O)N[C@H]2CC[C@@H](NC(=O)c3cc(C)ccc3O)CC2)c1` [Example 1, Syn-5-Fluoro N-[4-(2-hydroxy-5-methyl-benzoylamino)-cyclohexyl]-2-(3-methylsulfanyl-phenoxy)-nicotinamide]: 0.4 nM corresponded to half-maximal inhibition in data set [1] (IC50). The same measure, in the same setting: in the case of “Syn-5-fluoro-N-[4-(2-hydroxy-4-methyl-benzoylamino)-cyclohexyl]-2-(3-methylsulfanyl-phenoxy)-nicotinamide [Example 10]” it was 0.05 nM. Regarding `CSc1cccc(Oc2ncc(F)cc2C(=O)N[C@H]2CCCC[C@H]2O)c1` (relative stereo) [Example 31, 5-Fluoro-N-[cis-2-hydroxy-cyclohexyl]-2-(3-methylsulfanyl-phenoxy)-nicotinamide], the melting point was 99 to 101 °C. On the same count and under the same terms, next, `CSc1cccc(Oc2ncc(F)cc2C(=O)N[C@H]2CC[C@@H](CO)CC2)c1` [Example 60, 5-Fluoro-N-(cis-4-hydroxymethyl-cyclohexyl)-2-(3-methylsulfanyl-phenoxy)-nicotinamide]: 123 to 126 °C. Compound “Syn-5-fluoro-N-[4-(2-hydroxy-benzoylamino)-cyclohexyl]-2-(3-methylsulfanyl-phenoxy)-nicotinamide [Example 11]” came in with an IC50 in data set [1] of 0.05 nM. The compound “Syn-5-fluoro-N-{4-[(1H-imidazole-5-carbonyl)-amino]-cyclohexyl}-2-(3-methylsulfanyl-phenoxy)-nicotinamide [Example 18]” came in with an IC50 in data set [1] of 0.6 nM.

In data set [1], “Syn-5-fluoro-2-(3-methylsulfanyl-phenoxy)-N-{4-[(2,3-dimethyl-1H-pyrazole-5-carbonyl)-amino]-cyclohexyl}-nicotinamide [Example 3]” had an IC50 of 0.37 nM. For the compound “Syn-5-fluoro-N-[4-(5-chloro-2-hydroxy-benzoylamino)-cyclohexyl]-2-(3-methylsulfanyl-phenoxy)-nicotinamide [Example 5]”, the IC50 in data set [1] is 0.15 nM. On the same count and under the same terms, next, “Syn-5-fluoro-N-[4-(4-hydroxy-2-methoxy-benzoylamino)-cyclohexyl]-2-(3-methylsulfanyl-phenoxy)-nicotinamide [Example 22]”: 0.07 nM.
